Earlier results, collected in publication PMC9184245 (Journal of Pesticide Science, 2022).

What was measured:
[1] = measured value from experimental database; ref EPI Suite ver. 4.11
[2] = system: fish; settings: biomagnification factor, corrected by lipid content and growth rate
[3] = measured value; ref REACH registered substances database

Compound	log Kow [1]	Bioaccumulation potential, BMF [2]	Water solubility [3]
c1ccc2c(c1)ccc1ccccc12 [Compound 1, Phenanthrene]	4.46^a^)	–	–
c1ccc(-c2ccccc2-c2ccccc2)cc1 [Compound 2, o-Terphenyl]	5.52^a^)	–	–
O=[N+]([O-])c1ccc(Oc2ccc(Cl)cc2Cl)cc1 [Compound 3, Nitrofen]	4.64^a^)	BMF^d^)=0.179[4])	–
COc1ccc(C(c2ccc(OC)cc2)C(Cl)(Cl)Cl)cc1 [Compound 4, Methoxychlor]	5.08^a^)	–	–
CC(C)(C)c1cc(CCC(=O)OCC(COC(=O)CCc2cc(C(C)(C)C)c(O)c(C(C)(C)C)c2)(COC(=O)CCc2cc(C(C)(C)C)c(O)c(C(C)(C)C)c2)COC(=O)CCc2cc(C(C)(C)C)c(O)c(C(C)(C)C)c2)cc(C(C)(C)C)c1O [Compound 9, Pentaerythritol tetrakis[3-(3,5-di-tert-butyl-4-hydroxyphenyl)propionate]]	–	–	<0.1^c^) mg/L
